These results are taken from article PMC7179445, “Anticancer Activities of Newly Synthesized Chiral Macrocyclic Heptapeptide Candidates” (Molecules, 2020).

Molecules are shown by their SMILES. Where two headings read alike, the source gives them in different places. Where only a bound is given, the exact number is not on record here.

One data set deals with HepG2 cells. Type of data set: cell-based, human. How it is done:
(§1) The cytotoxic effects of the prepared compounds on MCF-7 and HepG2 cells were investigated with the help of standard MTT assay. […] Plates were then further incubated for 72 h. Afterwards, 20 μL of MTT (5 mg/mL in PBS) were pipetted to the wells and incubated for another 4 h. The medium was then aspirated and 100 μL DMSO were added/well. Absorbance was read using a microplate reader at 570 nm. IC50 values, used to compare compound toxicity with control cells, were obtained from linear regression of the dose–response curve using Origin® 6.1 software (OriginLab Corporation, Northampton, MA, USA). […] Data were represented as mean ± SD.

For a further data set, the system named is MCF-7 cells. Type of data set: cell-based, human. Particulars: for IC50: 72 h. How it is done: as §1

Take `CC[C@H](C)[C@H](NC(=O)[C@H](Cc1ccccc1)NC(=O)c1cccc(C(=O)N[C@@H](Cc2ccccc2)C(=O)N[C@H](C(=O)O)[C@@H](C)CC)n1)C(=O)O` [1c]: the results for the IC50 with HepG2 cells (72 h) and in the data set on MCF-7 cells were 17 ± 0.965 µM and 34.9 ± 1.27 µM, respectively. On the same counts, the results for `CC[C@H](C)[C@H](NC(=O)c1cccc(C(=O)N[C@H](C(=O)N[C@H](C(=O)N[C@@H](Cc2ccccc2)C(=O)O)[C@@H](C)CC)[C@@H](C)CC)n1)C(=O)N[C@H](C(=O)N[C@@H](Cc1ccccc1)C(=O)O)[C@@H](C)CC` [3a, N^α-Dipicolinoyl-bis[L-ILe-L-ILe-L-Phe-carboxylic acid]] are 8.06 ± 0.863 µM and 10.3 ± 0.546 µM. On the same counts, the results for `CC[C@H](C)[C@@H]1NC(=O)[C@H](Cc2ccccc2)NC(=O)c2cccc(n2)C(=O)N[C@@H](Cc2ccccc2)C(=O)N[C@@H]([C@@H](C)CC)C(=O)N[C@@H]([C@@H](C)CC)C(=O)N[C@H](C(=O)OC)CCCCNC(=O)[C@H]([C@@H](C)CC)NC1=O` [4c, Cyclo-(N^α-dipicolinoyl)-bis-[(L-Phe-L-ILe-L-Ile)-L-Lysmethyl ester]] are 9.63 ± 0.932 µM and 19.6 ± 1.03 µM.

Consider `N.N.[Cl][Pt][Cl]` [Cisplatin, reference compound], for which, in the data set with HepG2 cells (read-out: IC50 (compound concentration required to inhibit the cell viability by 50%), HepG-2, hepatocellular cancer cell line HepG2, MTT assay, RPMI 1640, 72 h incubation, absorbance 570 nm, mean ± SD, triplicates), the IC50 turned out to be 10.9 ± 0.962 µM. As to `CC[C@H](C)[C@H](NC(=O)c1cccc(C(=O)N[C@H](C(=O)N[C@@H](Cc2ccccc2)C(=O)O)[C@@H](C)CC)n1)C(=O)N[C@@H](Cc1ccccc1)C(=O)O` [1b], the IC50 in the data set on HepG2 cells (72 h) was 8.72 ± 0.474 µM; in the data set with MCF-7 cells, 10.9 ± 0.534 µM. As to `CC[C@H](C)[C@@H]1NC(=O)c2cccc(n2)C(=O)N[C@@H]([C@@H](C)CC)C(=O)N[C@@H]([C@@H](C)CC)C(=O)N[C@@H](Cc2ccccc2)C(=O)N[C@H](C(=O)OC)CCCCNC(=O)[C@H](Cc2ccccc2)NC(=O)[C@H]([C@@H](C)CC)NC1=O` [4a, Cyclo-(N^α-dipicolinoyl)-bis-[(L-ILe-L-ILe-L-Phe)-L-Lysmethyl ester]], the IC50 in the data set with HepG2 cells (72 h) stood at 7.31 ± 0.595 µM; in the data set with MCF-7 cells, 9.3 ± 0.536 µM. Taken in the same sequence, the figures for `CC[C@H](C)[C@H](NC(=O)c1cccc(C(=O)N[C@H](C(=O)N[C@H](C(=O)N[C@@H](Cc2ccccc2)C(=O)OC)[C@@H](C)CC)[C@@H](C)CC)n1)C(=O)N[C@H](C(=O)N[C@@H](Cc1ccccc1)C(=O)OC)[C@@H](C)CC` [2a, N^α-Dipicolinoyl-bis[L-ILe-L-ILe-L-Phe-methyl ester]] were 17.5 ± 0.876 µM and greater than 100 µM. Turning to `CC[C@H](C)[C@H](NC(=O)[C@@H](NC(=O)[C@H](Cc1ccccc1)NC(=O)c1cccc(C(=O)N[C@@H](Cc2ccccc2)C(=O)N[C@H](C(=O)N[C@H](C(=O)O)[C@@H](C)CC)[C@@H](C)CC)n1)[C@@H](C)CC)C(=O)O` [3c, N^α-Dipicolinoyl-bis[L-Phe-L-ILe-L-ILe-carboxylic acid]], the IC50 came out at 17 ± 1.16 µM in the data set on HepG2 cells (72 h) and 22.9 ± 0.992 µM in the data set on MCF-7 cells. With `CC[C@H](C)[C@H](NC(=O)[C@H](Cc1ccccc1)NC(=O)c1cccc(C(=O)N[C@@H](Cc2ccccc2)C(=O)N[C@H](C(=O)N[C@H](C(=O)OC)[C@@H](C)CC)[C@@H](C)CC)n1)C(=O)N[C@H](C(=O)OC)[C@@H](C)CC` [2c, N^α-Dipicolinoyl-bis[L-Phe-L-ILe-L-ILe-methyl ester]], the figures for the IC50 with HepG2 cells (72 h) and in the data set on MCF-7 cells were 19.3 ± 1.06 µM and 24.9 ± 1.08 µM, respectively. With `CC[C@H](C)[C@@H]1NC(=O)c2cccc(n2)C(=O)N[C@@H]([C@@H](C)CC)C(=O)N[C@@H](Cc2ccccc2)C(=O)N[C@@H]([C@@H](C)CC)C(=O)N[C@H](C(=O)OC)CCCCNC(=O)[C@H]([C@@H](C)CC)NC(=O)[C@H](Cc2ccccc2)NC1=O` [4b, Cyclo-(N^α-dipicolinoyl)-bis-[(L-ILe-L-Phe-L-Ile)-L-Lysmethyl ester]], the IC50 was 7.17 ± 0.892 µM with HepG2 cells (72 h) and 9.19 ± 0.545 µM in the data set with MCF-7 cells.

Turning to `CC[C@H](C)[C@H](NC(=O)[C@@H](NC(=O)c1cccc(C(=O)N[C@H](C(=O)N[C@H](C(=O)O)[C@@H](C)CC)[C@@H](C)CC)n1)[C@@H](C)CC)C(=O)O` [1a], the IC50 was 6.62 ± 0.353 µM with HepG2 cells (72 h) and 15.3 ± 0.672 µM in the data set on MCF-7 cells. In the data set with HepG2 cells (72 h), `CC[C@H](C)[C@@H]1NC(=O)c2cccc(n2)C(=O)N[C@@H]([C@@H](C)CC)C(=O)N[C@@H]([C@@H](C)CC)C(=O)N[C@@H](Cc2ccccc2)C(=O)N[C@H](C(=O)O)CCCCNC(=O)[C@H](Cc2ccccc2)NC(=O)[C@H]([C@@H](C)CC)NC1=O` [5a, Cyclo-(N^α-dipicolinoyl)-bis-[(L-ILe-L-Ile-L-Phe)-L-Lyscarboxylic acid]] gave an IC50 of 7.12 ± 0.79 µM. Regarding `CC[C@H](C)[C@H](NC(=O)[C@H](Cc1ccccc1)NC(=O)[C@@H](NC(=O)c1cccc(C(=O)N[C@H](C(=O)N[C@@H](Cc2ccccc2)C(=O)N[C@H](C(=O)O)[C@@H](C)CC)[C@@H](C)CC)n1)[C@@H](C)CC)C(=O)O` [3b, N^α-Dipicolinoyl-bis[L-ILe-L-Phe-L-ILe-carboxylic acid]], the IC50 in the data set with HepG2 cells (72 h) was determined as 9.66 ± 0.792 µM; in the data set with MCF-7 cells, 9.91 ± 0.491 µM. For `CC[C@H](C)[C@@H]1NC(=O)[C@H](Cc2ccccc2)NC(=O)c2cccc(n2)C(=O)N[C@@H](Cc2ccccc2)C(=O)N[C@@H]([C@@H](C)CC)C(=O)N[C@@H]([C@@H](C)CC)C(=O)N[C@H](C(=O)O)CCCCNC(=O)[C@H]([C@@H](C)CC)NC1=O` [5c, Cyclo-(N^α-dipicolinoyl)-bis-[(L-Phe-L-ILe-L-Ile)-L-Lyscarboxylic acid]], the “cytotoxic activity against HepG2 cells (in words)” value with HepG2 cells is given as “only active against HepG2 cells”. Moreover, the IC50 in the data set with HepG2 cells (72 h) worked out at 9.57 ± 1.14 µM. Further, in the data set on MCF-7 cells, the “cytotoxic activity against MCF-7 cells (in words)” value is listed as “did not show any activity”. For the compound `CC[C@H](C)[C@@H]1NC(=O)c2cccc(n2)C(=O)N[C@@H]([C@@H](C)CC)C(=O)N[C@@H](Cc2ccccc2)C(=O)N[C@@H]([C@@H](C)CC)C(=O)N[C@H](C(=O)O)CCCCNC(=O)[C@H]([C@@H](C)CC)NC(=O)[C@H](Cc2ccccc2)NC1=O` [5b, Cyclo-(N^α-dipicolinoyl)-bis-[(L-ILe-L-Phe-L-Ile)-L-Lyscarboxylic acid]], in the data set on HepG2 cells (72 h), the IC50 was 7.09 ± 0.784 µM. Regarding `CC[C@H](C)[C@H](NC(=O)c1cccc(C(=O)N[C@H](C(=O)N[C@@H](Cc2ccccc2)C(=O)N[C@H](C(=O)OC)[C@@H](C)CC)[C@@H](C)CC)n1)C(=O)N[C@@H](Cc1ccccc1)C(=O)N[C@H](C(=O)OC)[C@@H](C)CC` [2b, N^α-Dipicolinoyl-bis[L-ILe-L-L-Phe-ILe-methyl ester]], the results for the IC50 in the data set with HepG2 cells (72 h) and with MCF-7 cells were 18.7 ± 0.988 µM and 20.7 ± 0.974 µM, respectively.
